Assay results published in patent US20240057598A1, “USE OF 2-AMINO-3-METHYLHEXANOIC ACID AS PLANT IMMUNITY INDUCER” (NANJING AGRICULTURAL UNIVERSITY, priority 2020, published 2024).

Key:
[1] = system: tomato spotted wilt virus; assay: Induced resistance of tobacco to tomato spotted wilt virus infection; assay type: in vivo; conditions: for Relative immune effect / Disease index: tobacco; for Content of virus protein: tobacco leaves, 3 days, Western blot, relative
Procedure: Tomato spotted wilt virus was obtained from Yunnan Province, China. The initial virus source was stored in a refrigerator at −80° C. Nicotiana benthamiana leaves were inoculated with the virus by mechanical inoculation to activate the virus. Viral plasmids were extracted and transformed by competent cells of Escherichia coli. The competent cells were spread on a resistant plate and cultured. Single colonies were selected for PCR screening. Positive colonies were selected for sequencing and subsequent plasmid extraction. Plasmids with normal sequencing were added to competent cells of Agrobacterium, and the Agrobacterium was transformed by electroporation. A solution of the transformed Agrobacterium was spread on the correspondingly resistant screening plate, and cultured at 28° C. (±1) for 48 h. Single colonies of the Agrobacterium on the transformation plate were selected, placed in 5 mL of correspondingly resistant LB medium, and cultured overnight at 28° C. and 180 rpm. Bacterial cells were collected by 2 min of centrifugation at 6,000 rpm, and suspended with an Agrobacterium treatment buffer solution (10 mM MgCl2, 10 mM MES, 10 μM Acetosyringone) until the OD600 value of the suspension was 0.5, and the suspension was treated at 28° C. for 3 h in dark for use.
2-amino-3-methylhexanoic acid was dissolved in distilled water and then diluted with distilled water by gradient into solutions of 0 nM, 0.5 nM, 1 nM and 10 nM. Nicotiana benthamiana seeds were sowed in a small pot, and cultured at 22 (±1)° C., 16 h/8 h light for 5 weeks. Healthy tobacco plants (preferably with 8-10 leaves) were selected and treated with the 2-amino-3-methylhexanoic acid solutions of the above concentrations to conduct spray treatment on the stems and leaves. The treatment was repeated once after 24 h and conducted twice in total. After 24 h, the Agrobacterium solution with a uniform concentration was extracted using a 1 mL syringe, the injection port of the syringe was pressed directly on a small hole on the back of a tobacco leaf, and the bacterial solution was slowly pushed to soak the whole leaf. The soaked tobacco was moved to an environment of 22 (±1)° C. and cultured under 16 h/8 h light. 3 days later, microscopic observation was conducted. At the same time, samples were taken. The gray scale of protein bands was analyzed by Western blot combined with ImageJ software, and the relative protein content of the virus in the leaves was determined. The incidence of tobacco leaves was observed 15 days later, and the disease indexes were recorded according to the Grade and Investigation Method of Tobacco Diseases and Insect Pests (GB/T23222-2008) using a formula as follows: […]
Grading standard of tomato spotted wilt virus infection (grading and investigation were conducted per plant): • Grade 0: The whole plant is disease free. • Grade 1: Heart leaves have clear veins or are slightly mottled, and the diseased plant is not obviously dwarfed. • Grade 3: One-third of leaves are mottled without deformation, or the diseased plant is dwarfed to three quarters or more of a normal plant in height. • Grade 5: One-third to one-half of leaves are mottled, or a few leaves are deformed, or the main veins become black, or the plant is dwarfed to two-thirds to three-quarters of a normal plant in height. • Grade 7: One-half to two-thirds of leaves are mottled or deformed, or a few main and lateral veins become necrotic, or the plant is dwarfed to one-half to two-thirds of a normal plant in height. • Grade 9: The leaves of the whole plant are mottled, seriously deformed or necrotic, or the diseased plant is dwarfed to […] of a normal plant in height.

[2] = system: Pseudomonas syringae PstDC3000; assay: Induced resistance of Arabidopsis to Pseudomonas syringae infection; assay type: in vivo; conditions: for Number of bacteria in each milligram of leaf: Arabidopsis leaves, 3 days after inoculation; for Decrease of number of bacteria in each milligram of leaf: compared with blank control; for Decrease of disease index: versus blank control
Procedure: 2-amino-3-methylhexanoic acid was dissolved in sterile water and then diluted with sterile water into solutions of 1 nM, 10 nM, 100 nM, 1,000 nM and 10,000 nM by gradient. A blank control was additionally set, and 0.02% Tween 20 was added as a surfactant. Pseudomonas syringae PstDC3000 was spread on an LB plate and cultured at 28° C. for 48 h. Monoclonal colonies were selected and transferred into a 50 mL centrifuge tube containing 2 mL of a culture medium, and cultured on a shaker at 28° C. and 250 rpm. The change of the OD600 value of the bacterial solution was monitored every 1-2 h, and culture of bacteria was stopped before the OD600 value reached 0.8. 1 mL of bacterial solution was transferred into a 1.5 mL sterile centrifuge tube and centrifuged at 8,000 rpm for 2 min, and the precipitate was collected. The supernatant was removed, the precipitate was washed with 10 mM magnesium chloride three times and centrifuged, and finally the PstDC3000 was suspended in 10 mM magnesium chloride to make the OD600 value thereof reach 0.001 for use. Arabidopsis seeds were soaked in 75% alcohol for 3 min, then washed with sterile water 4 times, and sowed in a culture dish containing a ½ MS medium according to 12 seeds per culture dish. The ½ MS culture dish with seeds was vernalized at 4° C. for 3 days to break dormancy, and then placed in a culture room at 24° C. with a light intensity of 100 μEm^−2s^−1 (16 h light/8 h dark). When the seedlings grew for 2 weeks, the 2-amino-3-methylhexanoic acid of different concentrations was slowly poured into the culture dish until the whole Arabidopsis seedlings were submerged, and after 2-3 min, the treatment solution was poured out of the culture dish. The treatment was repeated once after 24 h and conducted twice in total. 24 h after the second treatment, the Arabidopsis leaves were inoculated with the PstDC3000 suspension (OD600=0.01) by the same submergence method. After inoculation, the culture dish was closed with a medical breathable adhesive tape, and placed in the culture room for further culture. 3 days later, the number of bacteria in different treatment groups was determined. The incidence of Arabidopsis was observed. The disease index was calculated by a formula the same as that in Example 1.
Grading standard of disease caused by PstDC3000 (per leaf): • Grade 0: No diseased spot on the leaf surface. • Grade 1: The diseased spot area accounts for 0-10% of the whole leaf area. • Grade 2: The diseased spot area accounts for 10-25% of the whole leaf area. • Grade 3: The diseased spot area accounts for 25-50% of the whole leaf area. • Grade 4: The diseased spot area accounts for 50-75% of the whole leaf area. • Grade 5: The diseased spot area accounts for 75-100% of the whole leaf area.

Bacillus subtilis = conditions: cited from earlier work
Brevibacterium helvolum = conditions: cited from earlier work
[3] = each concentration in range 0.5-10 nM

Question: For `CCCC(C)C(N)C(=O)O` (stereo not drawn) [2-amino-3-methylhexanoic acid], which Relative immune effect ([1]; 0.5 nM) is on record?
Answer: The Relative immune effect was 59.06%.

Question: What about the Relative immune effect ([1]; 1 nM) of the same compound?
Answer: Its Relative immune effect is 52.36%.

Question: What about the “Content of virus protein” value ([1]; 1 nM) of the same compound?
Answer: Its value is 0.33 ± 0.001c.

Question: And the Disease index ([1]; 1 nM, 15 days after inoculation)?
Answer: Its Disease index is 44.81 ± 3.90c.

Question: What about the Relative immune effect ([1]; 10 nM) of the same compound?
Answer: The Relative immune effect was 22.05%.

Question: What about the “Content of virus protein” value ([1]; 10 nM) of the same compound?
Answer: The value was 0.44 ± 0.007b.

Question: And the Disease index ([1]; 10 nM, 15 days after inoculation)?
Answer: The Disease index was 73.33 ± 2.22b.

Question: What about the Disease index [1, 3] of the same compound?
Answer: Its Disease index is “lower than 75”.

Question: What about the Relative immune effect [1, 3] of the same compound?
Answer: Its Relative immune effect is ≥ 20%.

Question: What about the Disease index ([2]; 10 nM, Arabidopsis) of the same compound?
Answer: The Disease index was 45.00 ± 2.78b.

Question: And the “Number of bacteria in each milligram of leaf” value ([2]; 10 nM)?
Answer: The value was 3.81 × 10^5 CPU/mg.

Question: What about the “Decrease of number of bacteria in each milligram of leaf” value ([2]; 10 nM) of the same compound?
Answer: The value was 88.24%.

Question: And the “Decrease of disease index” value ([2]; 10 nM)?
Answer: Its value is 42.33.

Question: What about the “Number of bacteria in each milligram of leaf” value ([2]; 100 nM) of the same compound?
Answer: The value was 2.49×10^5 CPU/mg.

Question: What about the “Decrease of number of bacteria in each milligram of leaf” value ([2]; 100 nM) of the same compound?
Answer: The value was 92.31%.

Question: What about the “Decrease of disease index” value ([2]; 100 nM) of the same compound?
Answer: Its value is 45.85.

Question: And the Inhibitory effect (Bacillus subtilis)?
Answer: Its Inhibitory effect is “obvious inhibitory effect”.

Question: What about the Inhibitory effect (Brevibacterium helvolum) of the same compound?
Answer: Its Inhibitory effect is “no inhibitory effect”.
